{"source": "ChEMBL document CHEMBL6071186", "about": "“Design, Synthesis, and Structural Evaluation of Acetylated Phenylthioketone Inhibitors of HDAC10” (ACS Med Chem Lett, 2024)", "key": {"[1]": {"molecular_target": "T1, Polyamine deacetylase HDAC10 (Homo sapiens) (UniProt Q969S8)", "T1 sequence (whole entry)": "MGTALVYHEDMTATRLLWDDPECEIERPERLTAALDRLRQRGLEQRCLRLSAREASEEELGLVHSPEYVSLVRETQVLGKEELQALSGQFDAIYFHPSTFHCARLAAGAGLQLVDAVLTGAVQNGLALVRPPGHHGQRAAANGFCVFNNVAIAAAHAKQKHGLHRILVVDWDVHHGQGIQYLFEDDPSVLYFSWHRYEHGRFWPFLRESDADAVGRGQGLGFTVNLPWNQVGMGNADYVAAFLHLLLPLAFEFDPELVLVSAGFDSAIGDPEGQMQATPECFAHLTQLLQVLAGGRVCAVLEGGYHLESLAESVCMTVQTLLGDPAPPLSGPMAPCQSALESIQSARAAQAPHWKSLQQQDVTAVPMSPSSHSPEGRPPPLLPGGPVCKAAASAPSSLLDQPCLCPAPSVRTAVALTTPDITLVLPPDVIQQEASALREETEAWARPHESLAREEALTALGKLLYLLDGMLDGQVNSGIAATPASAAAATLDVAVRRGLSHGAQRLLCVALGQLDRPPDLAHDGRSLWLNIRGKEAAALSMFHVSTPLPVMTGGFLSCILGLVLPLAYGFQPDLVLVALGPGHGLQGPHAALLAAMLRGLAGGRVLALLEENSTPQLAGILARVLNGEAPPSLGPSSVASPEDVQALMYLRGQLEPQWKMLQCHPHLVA", "conditions": "dose 500.0 µM", "description": "Binding affinity to humanized HDAC10 (A24E to D94A residues) (unknown origin) extracted from Danio rerio assessed as thermal stability by measuring melting temperature at 500 uM by differential scanning fluorimetry analysis (Rvb = 47.8+/-0.1degreeC)"}, "[2]": {"molecular_target": "T1, Polyamine deacetylase HDAC10 (Homo sapiens)", "conditions": "dose 500.0 µM", "remark": "listed apart in the source", "description": "Binding affinity to humanized HDAC10 (A24E to D94A residues) (unknown origin) extracted from Danio rerio assessed as change in melting temperature at 500 uM by differential scanning fluorimetry analysis"}}, "data": [{"smiles": "CN1CCc2c(c3ccccc3n2Cc2ccc(C(=O)NO)cc2)C1", "values": [{"measurement": "Tm", "setting": "[1]", "value": 65.5, "unit": "°C"}, {"measurement": "ΔTm", "setting": "[2]", "value": 17.7, "unit": "°C"}]}]}
